This note sets out measurements from US12286401B2, “Small molecules that sensitize HIV-1 infected cells to antibody dependent cellular cytotoxicity” (THE TRUSTEES OF THE UNIVERSITY OF PENNSYLVANIA, priority 2018, dated 2025).

The test system of the first assay is CH58TF infected primary CD4+ T-cells. Kind of assay: HIV+ patient sera/plasma recognition of CH58TF infected primary CD4+ T-cells (flow cytometry cell-surface staining). Format: cell-based, HIV-1. The note with it: 50 μM; 1:1000 diluted HIV+ plasma; result in words. A digest of the protocol:
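Primary CD4+ T cells from PBMC infected with HIV-1 CH58TF for 48 h, then surface-stained with 1:1000 HIV+ plasma or 5 μg/ml 17b plus 50 μM MCG analogs or DMSO; Alexa Fluor 647 anti-human IgG detection by flow cytometry, infected cells gated p24+. Values are fold change over DMSO.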
A general note: In flow cytometry, cells or beads pass a laser one at a time.
On to `CS(=O)(=O)N1CCC[C@H](C(=O)Nc2ccc(Cl)c(F)c2)C1` [(S)-MCG-III-027-D05], for which the “recognition of infected cells by plasma from 15 HIV-1-infected individuals” value (“recognition of infected cells by plasma” below) was “enhanced the recognition of infected cells”. With `COC(=O)N1CCC[C@H](C(=O)Nc2ccc(Cl)c(F)c2)C1` [(S)-MCG-III-188-A01], the “recognition of infected cells by plasma” value is recorded as “enhanced the recognition of infected cells”. In the case of `CCOC(=O)N1CCC[C@H](C(=O)Nc2ccc(Cl)c(F)c2)C1` [(S)-MCG-III-188-A02], the “recognition of infected cells by plasma” value was “enhanced the recognition of infected cells”.

Regarding `CCCNC(=O)N1CCC[C@H](C(=O)Nc2ccc(Cl)c(F)c2)C1` [(S)-MCG-IV-031-A05], the “recognition of infected cells by plasma” value is “enhanced the recognition of infected cells”. Still for that read-out and setting: the result for `NCCNC(=O)N1CCC[C@H](C(=O)Nc2ccc(Cl)c(F)c2)C1` [(S)-MCG-IV-210] reads “enhanced the recognition of infected cells”.

Staying with this assay, now noted: Human immunodeficiency virus 1, T-cell, read-out: Fold Over DMSO (patient sera, n = 3).
Regarding `CS(=O)(=O)N1CCC[C@H](C(=O)Nc2ccc(Br)cc2)C1` [(S)-MCG-III-027-A02], the fold induction at 50 µM worked out at 2.08. Same read-out and setting: in the case of `CS(=O)(=O)N1CCC[C@H](C(=O)Nc2ccc(F)cc2)C1` [(S)-MCG-III-027-A03] it was 1.52; in that of `CS(=O)(=O)N1CCC[C@H](C(=O)Nc2cccc(Cl)c2)C1` [(S)-MCG-III-027-B01], 1.37. The same measure, in the same setting: in the case of `CS(=O)(=O)N1CCC[C@H](C(=O)Nc2cccc(Br)c2)C1` [(S)-MCG-III-027-B02] it was 1.62. As to `CS(=O)(=O)N1CCC[C@H](C(=O)Nc2cccc(F)c2)C1` [(S)-MCG-III-027-B03], the fold induction at 50 µM is 1.44. On to `CS(=O)(=O)N1CCC[C@H](C(=O)Nc2cccc(C(F)(F)F)c2)C1` [(S)-MCG-III-027-B04], for which the fold induction at 50 µM was determined as 1.47. On the same count and under the same terms, the result for `COc1cccc(NC(=O)[C@H]2CCCN(S(C)(=O)=O)C2)c1` [(S)-MCG-III-027-B05] reads 1.71; that for `CS(=O)(=O)N1CCC[C@H](C(=O)Nc2ccccc2Cl)C1` [(S)-MCG-III-027-C01], 1.06; that for `CS(=O)(=O)N1CCC[C@H](C(=O)Nc2ccc(F)cc2F)C1` [(S)-MCG-III-027-D04], 1.24. For the compound `CS(=O)(=O)N1CCC[C@H](C(=O)Nc2ccc(Cl)c(F)c2)C1` [(S)-MCG-III-027-D05], the fold induction at 50 µM was 2.83. Consider `CCS(=O)(=O)N1CCC[C@H](C(=O)Nc2ccc(Cl)c(F)c2)C1` [(S)-MCG-III-085-C01], for which the fold induction at 50 µM was found to be 3.28.

For the compound `Cn1cnc(S(=O)(=O)N2CCC[C@H](C(=O)Nc3ccc(Cl)c(F)c3)C2)c1` [(S)-MCG-III-116-A02], the fold induction at 50 µM is 1.97. Turning to `COC(=O)N1CCC[C@H](C(=O)Nc2ccc(Cl)c(F)c2)C1` [(S)-MCG-III-188-A01], the fold induction at 50 µM stood at 2.69.

Regarding `CCOC(=O)N1CCC[C@H](C(=O)Nc2ccc(Cl)c(F)c2)C1` [(S)-MCG-III-188-A02], the fold induction at 50 µM was 3.83.

As to `O=C(Nc1ccc(Cl)c(F)c1)C1CCCN(S(=O)(=O)c2ccccc2)C1` (stereo not shown) [MCG-III-157-B03], the fold induction at 50 µM is 3.73. Consider `Cn1cnc(S(=O)(=O)N2CCCC(C(=O)Nc3ccc(Cl)c(F)c3)C2)c1` (stereo not shown) [MCG-III-157-B04], for which the fold induction at 50 µM was 2.4. Turning to `O=C(Nc1ccc(Cl)c(F)c1)C1CCCOC1` (stereo not shown) [MCG-III-207], the fold induction at 50 µM was 1.92.
